Read-outs that look alike come from different tables or passages of the source.
What was measured:
[1] = Acute toxicity in mice (LD50, Bliss' method); conditions: mouse, in vivo
Procedure: Acute toxicity was studied in mice, the compounds being administered intravenously, subcutaneously, intraperitoneally and orally.
The doses causing the death of 50% of the animals (LD50) were determined by Bliss' method, giving the following results: […]

[2] = test system: spontaneous motor function in mice; assay: Inhibition of spontaneous motor function in mice, Winter and Flataker test (photoelectric method); type: in vivo; conditions: Mus musculus
Source text: (§1) Thus, an inhibitory effect on spontaneous motor function in mice, a catalepsy-inducing power in rats, and antagonism towards certain apomorphine- and amphetamine-induced behavioural effects were investigated, in particular.
(§2) Regarding the spontaneous motor function in mice, an inhibitory effect of the inventive compounds was effectively observed and recorded by a photoelectric method, according to a technique similar to that of Winter and Flataker (J. Pharmacol. Exp. Ther. 1951, 101, 156-162) and by measurement of activity using an Animex apparatus.
(§3) The compounds were administered intraperitoneally or orally, respectively, 15 or 60 minutes before the recording according to the method adopted.
(§4) The values of the 50% inhibitory doses of motor function ID50 of the compounds are collected in the following table: […]

[3] = test system: spontaneous motor function in mice; assay: Inhibition of spontaneous motor function in mice, Animex activity measurement test; type: in vivo; conditions: Mus musculus
Source text: as §1, §2, §3, §4

catalepsy in rats = assay: Catalepsy in rats; type: in vivo; conditions: Rattus norvegicus, sc, subcutaneously, at the peak of effect
Procedure: The catalepsy-inducing function of the compounds of the invention was studied in rats. Each of the compounds was administered subcutaneously, at increasing doses, to groups of 10 rats (1 group for each dose). […] The dose giving rise to catalepsy in 50% of the animals (ED50) was determined graphically, at the peak of effect.

Apomorphine stereotypy [4] = assay: Antagonism of apomorphine stereotypy in rats (1.25 mg/kg IV, Janssen); type: in vivo; conditions: Rattus norvegicus, sc, compound s.c. 60 minutes before apomorphine 1.25 mg/kg IV, read-out: ID50 S.C., Apomorphine stereotypy (1.25 mg/kg IV)
Source text: (§5) Apomorphine and amphetamine induce stereotyped movements in rats which are antagonized by neuroleptics. […]
(§6) These different experimental conditions made it possible to establish the doses which antagonize stereotypy by 50% (ID50), judged on the basis of the various components of the movements which were observed.

Apomorphine stereotypy [5] = assay: Antagonism of apomorphine stereotypy in rats (0.5 mg/kg SC, derived from Puech); type: in vivo; conditions: Rattus norvegicus, ip, compound i.p. 30 minutes before apomorphine 0.5 mg/kg SC, read-out: ID50 I.P., Apomorphine stereotypy (0.5 mg/kg SC)
Source text: as §5, §6

[6] = test system: dexamphetamine stereotypy; assay: Antagonism of dexamphetamine stereotypy in rats (Janssen amphetamine test); type: in vivo; conditions: Rattus norvegicus, sc, 1 h, compound s.c. simultaneously with dexamphetamine 10 mg/kg i.v., effect at 60 minutes, read-out: ID50 S.C., Janssen amphetamine test
Procedure: Apomorphine and amphetamine induce stereotyped movements in rats which are antagonized by neuroleptics. Different doses of apomorphine administered by different routes were applied to produce these movements. In the test using dexamphetamine, carried out according to the technique of Janssen (Arz. Forsch. 1961, 11, 932-938), 10 mg/kg of dexamphetamine were injected intravenously, the test product being injected simultaneously subcutaneously, and the effect being measured 60 minutes after these injections. These different experimental conditions made it possible to establish the doses which antagonize stereotypy by 50% (ID50), judged on the basis of the various components of the movements which were observed.

[7] = test system: apomorphine-induced climbing behavior; assay: Antagonism of apomorphine-induced climbing behavior in mice; type: in vivo; conditions: Mus musculus, ip, compound i.p. 30 minutes before apomorphine 1 mg/kg s.c., read-out: ID50 I.P., apomorphine-induced climbing behavior
Procedure: Another test using apomorphine was applied, based on the observation of the climbing behavior which it induces in mice, this behavior being antagonized by neuroleptics, according to Puech (Eur. J. Pharmacol. 1978, 50, 291-300).
The compound was administered intraperitoneally 30 minutes before the apomorphine (1 mg/kg subcutaneously), and the antagonism was assessed 45 to 50 minutes after the administration of the compound.

[8] = ip, read-out: Lethal doses50 i.p.
[9] = iv, read-out: Lethal doses50 i.v.
[10] = po, orally, read-out: Lethal doses50 orally
[11] = sc, read-out: Lethal doses50 s.c.
[12] = ip, read-out: ID50 i.p., Winter and Flataker test
[13] = po, read-out: ID50 p.o., Winter and Flataker test
[14] = ip, read-out: ID50 i.p., Animex activity measurement test
[15] = po, read-out: ID50 p.o., Animex activity measurement test

SMILES	LD50 [1, 8] [mg/kg]	LD50 [1, 9] [mg/kg]	LD50 [1, 10] [mg/kg]	LD50 [1, 11] [mg/kg]	ED50 [2, 12] [mg/kg]	ED50 [2, 13] [mg/kg]	ED50 [3, 14] [mg/kg]	ED50 [3, 15] [mg/kg]	ED50 (catalepsy in rats) [mg/kg]	ED50 (Apomorphine stereotypy [4]) [mg/kg]	ED50 (Apomorphine stereotypy [5]) [mg/kg]	ED50 [6] [mg/kg]	ED50 [7] [mg/kg]	mortality ([1]; sc, at 900 mg/kg, read-out: deaths of animals at 900 mg/kg s.c.) [%]
CNS(=O)(=O)c1cc2c(c(C(=O)NCC3CCCN3CC3=CCCCC3)c1)OC(C)C2 (centres unmarked) [Ex 1, N-(1-Cyclohexenylmethyl-2-pyrrolidinylmethyl)-5-methylsulphamoyl-2-methyl-2,3-dihydrobenzofuran-7-carboxamide]	134 to 152	30.5 to 35.2	259 to 295	316 to 318	1.8	12.4 to 13.2	2.15 to 3.4	19.2 to 22.4	6.6	0.375	0.64 to 0.65	0.285	0.55 to 0.63	
CC1Cc2cc(Cl)cc(C(=O)NCC3CCCN3CC3=CCCCC3)c2O1 (centres unmarked) [Ex 15, Neutral ethanedisulphonate of N-(1-cyclohexenylmethyl-2-pyrrolidinylmethyl)-5-chloro-2-methyl-2,3-dihydrobenzofuran-7-carboxamide]	232 to 234	31.1 to 34.7		1410	3.5	43.4	2.2	23.2	1.35	0.41	0.58 to 0.59	0.18	0.28 to 0.34	
O=C(NCC1CCCN1CC1=CCCCC1)c1cc(Cl)cc2c1OCCC2.O=C(O)/C=C/C(=O)O (centres unmarked) [Ex 13, N-(1-Cyclohexenylmethyl-2-pyrrolidinylmethyl)-6-chlorochroman-8-carboxamide fumarate]	120		422 to 473		1.96	20.9	3	22.7	1.5	0.22	0.38 to 0.44	0.15	0.32 to 0.35	0
O=C(NCC1CCCN1CC1=CCCCC1)c1cc(Cl)cc2c1OCC2 (centres unmarked) [Ex 14, N-(1-Cyclohexenylmethyl-2-pyrrolidinylmethyl)-5-chloro-2,3-dihydrobenzofuran-7-carboxamide]	69.6 to 83.3	24.8	350 to 354	412 to 434	2.1	27	1.7	25	2.7	0.29	0.31 to 0.41	0.12	0.27 to 0.29	

Reference: patent publication US5006570A, “Dihydrobenzofuran- and chroman-carboxamide derivatives, processes for the preparation thereof and use thereof as neuroleptics” (Laboratoires Delagrange, priority 1986, dated 1991)
